Source: US20260048022A1, “ENDOTHELIAL DAMAGE AND NANOPARTICLE TARGETING: COMPOSITIONS, PROCESSES, USES” (Nanoprobes, Inc., priority 2022, published 2026)
Read-outs that look alike come from different tables or passages of the source.

How the values were obtained:
[1] = Payload retention / incorporation in protein nanoparticles; assay type: physicochemical; settings: PBS washing
Experimental: (§1) 0.2 mg of acridine yellow G or 0.2 mg of propidium iodide were dissolved in DMSO by heating twice at 80° C. for 2 min. 15 mg albumin was dissolved in 0.4 mL of PBS. While sonicating the albumin solution in an ice bath, the acridine or propidium solutions were slowly over about 10-20 sec injected at the sonicator tip. Sonication was continued for another minute. Clear colored solutions were obtained. Both were filtered through a 0.45 μm filter, all passing through. However, if albumin was not used, the solution containing acridine all was retained by the filter, whereas the propidium solution passed through. Both were purified with 50 kD Amicon centrifugal filters with PBS washing.
20 mg of albumin was dissolved in 0.4 mL water and mixed with 0.5 mg of Dox making a clear colored solution. Under sonication and in an ice-water bath, 80 ul of 0.1 M NaOH was slowly injected near the sonicator tip. Next, 10 ul of 8% glutaraldehyde (in water) was added with an additional 5 minutes of sonication producing a clear solution. After 30 min, 30 ul of a 3 M solution of ethanolamine hydrochloride was added. After 30 min, the construct was purified on a 50 kDa centrifugal filter. […] After resuspension of the retentate in PBS the size of the nanoparticles was measured to be 117 nm by dynamic light scattering. […]

DNA = assay: Nanoparticle targeting of DNA; assay type: binding; settings: DNA binder incorporated into nanoparticles
Experimental: as §1
20 mg of albumin was dissolved in 0.4 mL water and mixed with 0.5 mg of Dox making a clear colored solution. Under sonication and in an ice-water bath, 80 ul of 0.1 M NaOH was slowly injected near the sonicator tip. Next, 10 ul of 8% glutaraldehyde (in water) was added with an additional 5 minutes of sonication producing a clear solution. After 30 min, 30 ul of a 3 M solution of ethanolamine hydrochloride was added. After 30 min, the construct was purified on a 50 kDa centrifugal filter. […] After resuspension of the retentate in PBS the size of the nanoparticles was measured to be 117 nm by dynamic light scattering.

[2] = Phase III trials; cited from earlier work
tumors [3] = assay: Tumor treatment, variation of fibrinogen, drug and VDA amounts; assay type: in vivo
Experimental: One of the components, fibrinogen, was varied from 10 to 150 mg/kg.
In a preferred embodiment, 60 mg PTX/kg and 350 mg fibrinogen/kg are formed into nanoparticles 110-180 nm or 110 to 350 nm in size. Another discovery process requiring extensive experimentation was to find the type of fibrinogen that worked well. […] Various forms and fractions were tested to find a preferable one for tumor targeting.

tumors [4] = settings: Pedley et al, 1996; cited from earlier work
[5] = free drug, literature, cited from earlier work
[6] = system: advanced non-squamous non-small-cell lung cancer; settings: Phase II, with carboplatin, paclitaxel, and bevacizumab; cited from earlier work

Compound: CC[N+](C)(CC)CCC[n+]1c(-c2ccccc2)c2cc(N)ccc2c2ccc(N)cc21 [propidium, propidium iodide]
- retention with albumin on 50 kD Amicon centrifugal filters (stable complex) [1]: came through in the filtrate
- targeting of necroses / free DNA when included in a nanoparticle (DNA): failed

Compound: Cc1cc2cc3cc(C)c(N)cc3nc2cc1N [acridine yellow G]
- retention with albumin on 50 kD Amicon centrifugal filters (stable complex) [1]: remained in the retentate
- targeting of necroses / free DNA when included in a nanoparticle (DNA): found to target the nanoparticles to free DNA

Compound: Cc1ccc2c(=O)c3cccc(CC(=O)O)c3oc2c1C [DMXAA]
- patient survival [2]: lack of patient gain in survival
- dose close to optimal (tumors [3]; DMXAA as vascular disrupting agent with nanoparticles): ~18 mg/kg
- ineffective dose (current teaching) (tumors [4]): less than 20 mg/kg
- useful dose (current teaching) (tumors [4]): 27.5 mg/kg
- dose leading to excessive toxicity (mouse, in vivo): > 20 mg/kg

Compound: CC(=O)O[C@H]1C(=O)[C@@]2(C)[C@H]([C@H](OC(=O)c3ccccc3)[C@]3(O)C[C@H](OC(=O)[C@H](O)[C@@H](NC(=O)c4ccccc4)c4ccccc4)C(C)=C1C3(C)C)[C@]1(OC(C)=O)CO[C@@H]1C[C@@H]2O [paclitaxel]
- maximum tolerated dose (reported / published) [5]: 10 mg/kg
- maximum tolerated dose (reported / published) ([5]; listed as PTX): 25 mg/kg
- treatment result (tumors [3]; 60-90 mg PTX/kg in the nanoparticle): excellent results
- tolerability (mouse, in vivo, 90 mg/kg): well-tolerated
- multiple of the maximum tolerated dose that can be safely administered (using the disclosed method): ~4 times

Compound: COc1ccc(/C=C\c2cc(OC)c(OC)c(OC)c2)cc1OP(=O)(O)O.NC(CO)(CO)CO [CA4P, fosbretabulin tromethamine]
- patient benefit [6]: little patient benefit
